Measured values from the NIST ThermoML archive (doi:10.1021/je700261b).

Test: xn = mol fraction of the nth substance listed
Conditions: Liquid

CCCCO [butan-1-ol] + O=C=O
Conditions	mass density [kg/m3]
352.82 K, 13001 kPa, x2 = 0.1842	780.49
352.82 K, 14050 kPa, x2 = 0.1842	781.67
352.82 K, 15000 kPa, x2 = 0.1842	782.72
352.82 K, 15999 kPa, x2 = 0.1842	783.84
352.82 K, 17008 kPa, x2 = 0.1842	784.88
352.82 K, 18066 kPa, x2 = 0.1842	786.01
352.82 K, 19002 kPa, x2 = 0.1842	787.01
352.82 K, 20015 kPa, x2 = 0.1842	788.03
352.82 K, 21043 kPa, x2 = 0.1842	789.11
352.82 K, 22025 kPa, x2 = 0.1842	790.1
352.82 K, 23024 kPa, x2 = 0.1842	791.11
352.82 K, 24015 kPa, x2 = 0.1842	792.1
352.82 K, 25100 kPa, x2 = 0.1842	793.18
352.83 K, 2007 kPa, x2 = 0.0857	766.96
352.83 K, 3023 kPa, x2 = 0.0857	768.13
352.83 K, 3953 kPa, x2 = 0.0857	769.18
352.83 K, 5008 kPa, x2 = 0.0857	770.34
352.83 K, 5991 kPa, x2 = 0.0857	771.43
352.83 K, 7011 kPa, x2 = 0.0857	772.54
352.83 K, 7992 kPa, x2 = 0.0857	773.57
352.83 K, 9016 kPa, x2 = 0.0857	774.63
352.83 K, 10033 kPa, x2 = 0.0857	775.71
352.83 K, 10983 kPa, x2 = 0.0857	776.62
352.83 K, 12020 kPa, x2 = 0.0857	777.74
352.83 K, 13038 kPa, x2 = 0.0857	778.75
352.83 K, 13990 kPa, x2 = 0.0857	779.64
352.83 K, 14986 kPa, x2 = 0.0857	780.63
352.83 K, 16028 kPa, x2 = 0.0857	781.61
352.83 K, 16995 kPa, x2 = 0.0857	782.54
352.83 K, 17994 kPa, x2 = 0.0857	783.45
352.83 K, 18991 kPa, x2 = 0.0857	784.4
352.83 K, 20014 kPa, x2 = 0.0857	785.33
352.83 K, 21017 kPa, x2 = 0.0857	786.18
352.83 K, 21993 kPa, x2 = 0.0857	787.09
352.83 K, 23041 kPa, x2 = 0.0857	788.01
352.83 K, 24037 kPa, x2 = 0.0857	788.92
352.83 K, 25058 kPa, x2 = 0.0857	789.81
352.85 K, 13091 kPa, x2 = 0.4972	783.81
352.85 K, 13958 kPa, x2 = 0.4972	785.52
352.85 K, 15066 kPa, x2 = 0.4972	787.67
352.85 K, 16029 kPa, x2 = 0.4972	789.49
352.85 K, 17077 kPa, x2 = 0.4972	791.44
352.85 K, 18031 kPa, x2 = 0.4972	793.15
352.85 K, 19033 kPa, x2 = 0.4972	794.93
352.85 K, 20018 kPa, x2 = 0.4972	796.63
352.85 K, 21055 kPa, x2 = 0.4972	798.4
352.85 K, 22035 kPa, x2 = 0.4972	800
352.85 K, 23067 kPa, x2 = 0.4972	801.7
352.85 K, 24007 kPa, x2 = 0.4972	803.18
352.85 K, 25035 kPa, x2 = 0.4972	804.81
352.88 K, 14075 kPa, x2 = 0.5965	780.49
352.88 K, 15042 kPa, x2 = 0.5965	783.18
352.88 K, 16039 kPa, x2 = 0.5965	785.88
352.88 K, 17076 kPa, x2 = 0.5965	788.55
352.88 K, 18030 kPa, x2 = 0.5965	790.96
352.88 K, 18449 kPa, x2 = 0.8663	712.26
352.88 K, 19037 kPa, x2 = 0.5965	793.41
352.88 K, 19044 kPa, x2 = 0.8663	719.05
352.88 K, 20049 kPa, x2 = 0.5965	795.8
352.88 K, 20064 kPa, x2 = 0.8663	729.73
352.88 K, 21030 kPa, x2 = 0.5965	798.05
352.88 K, 21052 kPa, x2 = 0.8663	739.04
352.88 K, 22036 kPa, x2 = 0.5965	800.27
352.88 K, 22047 kPa, x2 = 0.8663	747.62
352.88 K, 23019 kPa, x2 = 0.5965	802.43
352.88 K, 23067 kPa, x2 = 0.8663	755.76
352.88 K, 24035 kPa, x2 = 0.8663	762.91
352.88 K, 24039 kPa, x2 = 0.5965	804.6
352.88 K, 25048 kPa, x2 = 0.8663	769.99
352.88 K, 25092 kPa, x2 = 0.5965	806.79
362.66 K, 20602 kPa, x2 = 0.9698	595.03
362.66 K, 21041 kPa, x2 = 0.9698	604.05
362.66 K, 22017 kPa, x2 = 0.9698	622.53
362.66 K, 23022 kPa, x2 = 0.9698	639.79
362.66 K, 24038 kPa, x2 = 0.9698	655.56
362.66 K, 25046 kPa, x2 = 0.9698	669.85
362.67 K, 1053 kPa, x2 = 0.0251	755.01
362.67 K, 2066 kPa, x2 = 0.0251	756.19
362.67 K, 3045 kPa, x2 = 0.0251	757.27
362.67 K, 4013 kPa, x2 = 0.0251	758.36
362.67 K, 5068 kPa, x2 = 0.0251	759.49
362.67 K, 6009 kPa, x2 = 0.0251	760.49
362.67 K, 6988 kPa, x2 = 0.0251	761.58
362.67 K, 7985 kPa, x2 = 0.0251	762.59
362.67 K, 9006 kPa, x2 = 0.0251	763.64
362.67 K, 10031 kPa, x2 = 0.0251	764.7
362.67 K, 11027 kPa, x2 = 0.0251	765.69
362.67 K, 12000 kPa, x2 = 0.0251	766.65
362.67 K, 13054 kPa, x2 = 0.0251	767.68
362.67 K, 14008 kPa, x2 = 0.0251	768.61
362.67 K, 14993 kPa, x2 = 0.0251	769.57
362.67 K, 16000 kPa, x2 = 0.0251	770.52
362.67 K, 17046 kPa, x2 = 0.0251	771.48
362.67 K, 17989 kPa, x2 = 0.0251	772.34
362.67 K, 19009 kPa, x2 = 0.0251	773.27
362.67 K, 20045 kPa, x2 = 0.0251	774.19
362.67 K, 21017 kPa, x2 = 0.0251	775.08
362.67 K, 22075 kPa, x2 = 0.0251	775.99
362.67 K, 23006 kPa, x2 = 0.0251	776.82
362.67 K, 24007 kPa, x2 = 0.0251	777.69
362.67 K, 25062 kPa, x2 = 0.0251	778.61
362.69 K, 2045 kPa, x2 = 0.0857	757.33
362.69 K, 3006 kPa, x2 = 0.0857	758.53
362.69 K, 3982 kPa, x2 = 0.0857	759.72
362.69 K, 5010 kPa, x2 = 0.0857	760.91
362.69 K, 5976 kPa, x2 = 0.0857	762.09
362.69 K, 6994 kPa, x2 = 0.0857	763.25
362.69 K, 7999 kPa, x2 = 0.0857	764.42
362.69 K, 8998 kPa, x2 = 0.0857	765.51
362.69 K, 10048 kPa, x2 = 0.0857	766.67
362.69 K, 11028 kPa, x2 = 0.0857	767.74
362.69 K, 11999 kPa, x2 = 0.0857	768.75
362.69 K, 12994 kPa, x2 = 0.0857	769.85
362.69 K, 14018 kPa, x2 = 0.0857	770.91
362.69 K, 15014 kPa, x2 = 0.0857	771.91
362.69 K, 15995 kPa, x2 = 0.0857	772.93
362.69 K, 17061 kPa, x2 = 0.0857	773.98
362.69 K, 18008 kPa, x2 = 0.0857	774.96
362.69 K, 19008 kPa, x2 = 0.0857	775.88
362.69 K, 20060 kPa, x2 = 0.0857	776.81
362.69 K, 21044 kPa, x2 = 0.0857	777.83
362.69 K, 22045 kPa, x2 = 0.0857	778.82
362.69 K, 23036 kPa, x2 = 0.0857	779.68
362.69 K, 24037 kPa, x2 = 0.0857	780.65
362.69 K, 25015 kPa, x2 = 0.0857	781.57
362.74 K, 14112 kPa, x2 = 0.4972	771.83
362.74 K, 15096 kPa, x2 = 0.4972	773.91
362.74 K, 15985 kPa, x2 = 0.4972	775.76
362.74 K, 17043 kPa, x2 = 0.4972	777.9
362.74 K, 18079 kPa, x2 = 0.4972	779.94
362.74 K, 19117 kPa, x2 = 0.4972	781.94
362.74 K, 20051 kPa, x2 = 0.4972	783.68
362.74 K, 21025 kPa, x2 = 0.4972	785.45
362.74 K, 22018 kPa, x2 = 0.4972	787.27
362.74 K, 23076 kPa, x2 = 0.4972	789.13
362.74 K, 24063 kPa, x2 = 0.4972	790.85
362.74 K, 25140 kPa, x2 = 0.4972	792.64
362.75 K, 21992 kPa, x2 = 0.8663	710.63
362.75 K, 23010 kPa, x2 = 0.8663	720.36
362.75 K, 24074 kPa, x2 = 0.8663	729.68
362.75 K, 25130 kPa, x2 = 0.8663	738.23
362.76 K, 15085 kPa, x2 = 0.5965	765.37
362.76 K, 16042 kPa, x2 = 0.5965	768.34
362.76 K, 17060 kPa, x2 = 0.5965	771.36
362.76 K, 18019 kPa, x2 = 0.5965	774.09
362.76 K, 19023 kPa, x2 = 0.5965	776.91
362.76 K, 20064 kPa, x2 = 0.5965	779.68
362.76 K, 21026 kPa, x2 = 0.5965	782.15
362.76 K, 22023 kPa, x2 = 0.5965	784.67
362.76 K, 23058 kPa, x2 = 0.5965	787.18
362.76 K, 24078 kPa, x2 = 0.5965	789.61
362.76 K, 25110 kPa, x2 = 0.5965	791.98
362.78 K, 6018 kPa, x2 = 0.1842	761.83
362.78 K, 6995 kPa, x2 = 0.1842	763.16
362.78 K, 8099 kPa, x2 = 0.1842	764.64
362.78 K, 9002 kPa, x2 = 0.1842	765.81
362.78 K, 10022 kPa, x2 = 0.1842	767.06
362.78 K, 10995 kPa, x2 = 0.1842	768.34
362.78 K, 12059 kPa, x2 = 0.1842	769.68
362.78 K, 13056 kPa, x2 = 0.1842	770.87
362.78 K, 14029 kPa, x2 = 0.1842	772.05
362.78 K, 15026 kPa, x2 = 0.1842	773.24
362.78 K, 16010 kPa, x2 = 0.1842	774.38
362.78 K, 17020 kPa, x2 = 0.1842	775.53
362.78 K, 18041 kPa, x2 = 0.1842	776.68
362.78 K, 19031 kPa, x2 = 0.1842	777.79
362.78 K, 20045 kPa, x2 = 0.1842	778.9
